Assay results: patent US10011614B2, “Bis-β-carboline compound and preparation method, pharmaceutical composition and use thereof” (XINJIANG HUASHIDAN PHARMACEUTICAL RESEARCH CO., LTD., priority 2012, dated 2018)

Columns and labels:
[1] = system: BGC (human gastric cancer cells); test: Antitumor screening in vitro, MTT assay, BGC; assay type: cell-based; settings: 48 hours
Protocol: (§1) Cell lines: BGC (human gastric cancer cells), A375 (human malignant melanoma cells), 769-P (human renal carcinoma cells), KB (human oral epidermoid carcinoma cells), SK-OV-3 (human ovarian cancer cells), etc, were selected, and the test method was the MTT assay. Cisplatin was as a positive control.
(§2) Specific methods are as follows: cells growing well in the logarithmic phase were seeded in 96-well plates at a concentration of 1×10^4 cells/ml, and then were placed in 37° C., containing 5% CO2 incubator for 24 hours. After discarding the old solution, changed fresh medium, and added sterilization treatment compound, and then cultured for 48 hours. After discarding the culture medium, 20 ul RPMI1640 medium containing 5 mg/ml MTT were added to each well in 96-well plates and cells were cultured for 4 hours. After the supernatant was carefully removed, 100 μl DMSO was added to each well, and the plates were Oscillated about 10 min to dissolve the precipitate, followed by detecting OD value in wavelength 490 nm by the microplate reader. Cell survival rate for each sample concentrations was determined by the following formula: The mean survival rate %=the average OD value of sample group/the average OD value of control group×100%
(§3) Morphological studies by mapping with the logarithm of the drug concentration and the mean survival rate % of each sample to obtain IC50 values for each sample.

[2] = system: A375 (human malignant melanoma cells); test: Antitumor screening in vitro, MTT assay, A375; assay type: cell-based
Protocol: as §1, §2, §3

[3] = system: 769-P (human renal carcinoma cells); test: Antitumor screening in vitro, MTT assay, 769-P; assay type: cell-based; settings: 48 hours, 769-P cells
Protocol: as §1, §2, §3

[4] = system: KB (human oral epidermoid carcinoma cells); test: Antitumor screening in vitro, MTT assay, KB; assay type: cell-based; settings: 48 hours
Protocol: as §1, §2, §3

[5] = system: SK-OV-3 (human ovarian cancer cells); test: Antitumor screening in vitro, MTT assay, SK-OV-3; assay type: cell-based; settings: 48 hours, SK-OV-3 cells
Protocol: as §1, §2, §3

in vivo = settings: both, Kunming, mouse, in vivo, ip
Protocol: Solvent: 0.9% saline and 0.5% CMC-Na solution. According to pre-test results, design 5 dose gradient for each sample, dose spacing was 0.8 times. […] Experimental volume is 0.5 ml/20 g mouse. A single intraperitoneal administration is used. Kunming mice were taken and grouped randomly by gender, and intraperitoneal administration according to dose designation was set to observe the immediate reaction after administration in mice. Dead animals were dissected to observe, surviving animals continued to observe two weeks, and the animal deaths in two weeks were recorded. After two weeks, surviving animals were dissected, observed substantial organ lesions, and the organs having substantive lesions were further for histological examination. According to the number of deaths in each group of animals, calculating the median lethal dose (LD50 value) by Bliss method, and further, calculating the maximum tolerated dose (MTD) for less toxic compounds.

Row | Structure (SMILES) | IC50 ([1]; Homo sapiens) [µM] | IC50 ([2]; Homo sapiens, A-375, 48 hours) [µM] | IC50 ([3]; Homo sapiens) [µM] | IC50 ([4]; Homo sapiens) [µM] | IC50 ([5]; Homo sapiens) [µM] | melting point [°C] | IC50 [1] [µM] | IC50 ([2]; 48 hours) [µM] | IC50 [3] [µM] | IC50 [4] [µM] | IC50 [5] [µM] | LD50 at 2 weeks (in vivo) [mg/kg]
1 | Cc1nccc2c3ccccc3n(CCCCCn3c4ccccc4c4ccnc(C)c43)c12 [Compound 8, 1,5-bis(1-methyl-β-carboline-9-yl)pentane] | > 300 | > 300 | > 300 | > 300 | 18.8 | 213 to 214 |  |  |  |  |  | 
2 | Cc1nccc2c3cc(Br)ccc3n(CCCCC(C)n3c4ccc(Br)cc4c4ccnc(C)c43)c12 (stereo not drawn) [Compound 21, 1,5-bis(6-bromo-1-methyl-β-carboline-9-yl) hexane] | > 300 | > 300 | 4.3 | > 300 | > 300 | 208 to 209 |  |  |  |  |  | 
3 | Cc1nccc2c3ccc(OC(C)C)cc3n(CCCCCCCCCn3c4cc(OC(C)C)ccc4c4ccnc(C)c43)c12 [Compound 26, 1,9-bis(7-isopropoxy-1-methyl-β-carboline-9-yl) nonane] | > 300 | 43.3 | 40 | 112 | 101 |  |  |  |  |  |  | 200
4 | c1ccc2c(c1)c1ccnc(-c3ccsc3)c1n2CCCCCCCCn1c2ccccc2c2ccnc(-c3ccsc3)c21 [Compound 34, 1,8-bis[1-(3-thienyl)-β-carboline-9-yl) octane] | > 300 | 32.1 | > 300 | > 300 | > 300 |  |  |  |  |  |  | 250
5 | COc1ccc2c3ccnc(C)c3n(CCCCn3c4cc(OC)ccc4c4ccnc(C)c43)c2c1 [Compound 14, 1,4-bis(7-methoxy-1-methyl-β-carboline-9-yl) butane] | 75.7 | 6.2 | 65.6 | 2.8 | 7.1 |  |  |  |  |  |  | 50
6 | O=[N+]([O-])c1ccc(Cl)c(-c2nccc3c4ccccc4n(CCCCCCn4c5ccccc5c5ccnc(-c6cc([N+](=O)[O-])ccc6Cl)c54)c23)c1 [Compound 37, 1,6-bis[1-(2-chloro-5-nitro-phenyl)-⊕-carboline-9-yl) hexane] |  |  |  |  |  |  | > 300 | 7 | 3.8 | > 300 | > 300 | 
7 | COc1ccc2c3ccnc(C)c3n(CCCCCn3c4cc(OC)ccc4c4ccnc(C)c43)c2c1 [Compound 15, 1,5-bis(7-methoxy-1-methyl-β-carboline-9-yl)pentane] | 58.6 | < 1.38 | 81 | 5 | 1.7 | 180 to 181 |  |  |  |  |  | 
8 | Cc1nccc2c3ccccc3n(CCCCCCCCCCn3c4ccccc4c4ccnc(C)c43)c12 [Compound 13, 1,10-bis(1-methyl-β-carboline-9-yl) decane] | > 300 | > 300 | 16.2 | > 300 | 8.5 | 152 to 154 |  |  |  |  |  | 
9 | CCCCOc1ccc2c3ccnc(C)c3n(CCCCn3c4cc(OCCCC)ccc4c4ccnc(C)c43)c2c1 [Compound 23, 1,4-bis(7-n-butoxy-1-methyl-β-carboline-9-yl) butane] | 8.5 | 3.8 | > 300 | 6.8 | 5.5 | 193 to 194 |  |  |  |  |  | 
10 | c1cncc(-c2nccc3c4ccccc4n(CCCCn4c5ccccc5c5ccnc(-c6cccnc6)c54)c23)c1 [Compound 31, 1,4-bis[1-(pyridine-3-yl)-β-carboline-9-yl) butane] | 270 | 85.3 | > 300 | > 300 | 36.8 | 224 to 225 |  |  |  |  |  | 
11 | COc1ccc2c3ccnc(C)c3n(CCCCCCCn3c4cc(OC)ccc4c4ccnc(C)c43)c2c1 [Compound 17, 1,7-bis(7-methoxy-1-methyl-β-carboline-9-yl) heptane] | > 300 | 35.3 | > 300 | 155 | 11.7 |  |  |  |  |  |  | 200
12 | O=[N+]([O-])c1ccc(Cl)c(-c2nccc3c4ccccc4n(CCCCCCCCCn4c5ccccc5c5ccnc(-c6cc([N+](=O)[O-])ccc6Cl)c54)c23)c1 [Compound 38, 1,9-bis[1-(2-chloro-5-nitrophenyl)-β-carboline-9-yl) nonane] | > 300 | > 300 | 1.8 | > 300 | > 300 |  |  |  |  |  |  | 

More lines, main results first:

Row | IC50 ([1]; Homo sapiens) [µM] | IC50 ([2]; Homo sapiens, A-375, 48 hours) [µM] | IC50 ([3]; Homo sapiens) [µM] | IC50 ([4]; Homo sapiens) [µM] | IC50 ([5]; Homo sapiens) [µM] | melting point [°C] | IC50 [1] [µM] | IC50 ([2]; 48 hours) [µM] | IC50 [3] [µM] | IC50 [4] [µM] | IC50 [5] [µM] | Structure (SMILES) | LD50 at 2 weeks (in vivo) [mg/kg]
13 | 59.7 | > 300 | 199 | > 300 | > 300 |  |  |  |  |  |  | c1ccc2c(c1)c1ccncc1n2CCCCn1c2ccccc2c2ccncc21 [Compound 1, 1,4-bis(β-carboline-9-yl) butane] | 200
14 | > 300 | 53.5 | 18.5 | 253 | 31.8 | 241 to 242 |  |  |  |  |  | CC(C)c1nccc2c3ccccc3n(CCCCCCn3c4ccccc4c4ccnc(C(C)C)c43)c12 [Compound 39, 1,6-bis(1-isopropyl-β-carboline-9-yl) hexane] | 
15 | 22.3 | 13.1 | 6.5 | 6.4 | 4.8 |  |  |  |  |  |  | Cc1nccc2c3ccccc3n(CCCCn3c4ccccc4c4ccnc(C)c43)c12 [Compound 7, 1,4-bis(1-methyl-β-carboline-9-yl) butane] | 200
16 | 134 | 38 | 149 | 87.9 | 16.9 | 189 to 190 |  |  |  |  |  | Cc1nccc2c3ccccc3n(CCCCCCCn3c4ccccc4c4ccnc(C)c43)c12 [Compound 10, 1,7-bis(1-methyl-β-carboline-9-yl) heptane] | 
17 | 252 | 69.5 | 145 | 160 | 26.4 | 239 to 240 |  |  |  |  |  | Cc1nccc2c3ccccc3n(CCCn3c4ccccc4c4ccnc(C)c43)c12 [Compound 6, 1,3-bis (1-methyl-β-carboline-9-yl) propane] | 
18 | > 300 | > 300 | 51.7 | > 300 | 96.8 |  |  |  |  |  |  | Cc1nccc2c3ccccc3n(CCCCCCn3c4ccccc4c4ccnc(C)c43)c12 [Compound 9, 1,6-bis(1-methyl-β-carboline-9-yl) hexane] | 200
19 | > 300 | > 300 | > 300 | > 300 | 63.4 |  |  |  |  |  |  | Cc1nccc2c3cc(Br)ccc3n(CCCCCCn3c4ccc(Br)cc4c4ccnc(C)c43)c12 [Compound 22, 1,6-bis(6-bromo-1-methyl-β-carboline-9-yl) hexane] | 200
20 | > 300 | > 300 | > 300 | > 300 | 67.6 | 198 to 199 |  |  |  |  |  | c1ccc2c(c1)c1ccnc(-c3ccsc3)c1n2CCCCCCn1c2ccccc2c2ccnc(-c3ccsc3)c21 [Compound 33, 1,6-bis[1-(3-thienyl)-β-carboline-9-yl) hexane] | 
21 | 104 | 113 | 114 | 38.6 | 10.2 |  |  |  |  |  |  | COc1ccc2c3ccnc(C)c3n(CCCCCCCC(C)n3c4cc(OC)ccc4c4ccnc(C)c43)c2c1 (stereo not drawn) [Compound 18, 1,8-bis(7-methoxy-1-methyl-β-carboline-9-yl) nonane] | 
22 | 23.5 | 10.2 | 15.3 | > 300 | > 300 |  |  |  |  |  |  | c1ccc2c(c1)c1ccncc1n2CCCCCn1c2ccccc2c2ccncc21 [Compound 2, 1,5-bis(β-carboline-9-yl)pentane] | 
23 | 194 | 18.5 | 95.4 | 19.8 | 17.1 |  |  |  |  |  |  | Cc1nccc2c3ccc(OC(C)C)cc3n(CCCCCCn3c4cc(OC(C)C)ccc4c4ccnc(C)c43)c12 [Compound 25, 1,6-bis(7-isopropoxy-1-methyl-β-carboline-9-yl) hexane] | 
24 | > 300 | 67.2 | 291 | > 300 | 61.9 | 155 to 156 |  |  |  |  |  | Cc1nccc2c3ccccc3n(CCCCCCCCCn3c4ccccc4c4ccnc(C)c43)c12 [Compound 12, 1,9-bis(1-methyl-β-carboline-9-yl) nonane] | 
25 | > 300 | 285 | > 300 | > 300 | 33.5 | 180 to 181 |  |  |  |  |  | c1ccc2c(c1)c1ccncc1n2CCCCCCCCn1c2ccccc2c2ccncc21 [Compound 5, 1,8-bis(β-carboline-9-yl) octane] | 
